Test results as given in ChEMBL document CHEMBL1201862, “PubChem BioAssay data set” (2004).
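Growth conditions: 96-well plates. Treatment: test compound, 48 hours, 5 concentrations. Analysis: linear interpolation between bracketing concentrations; unreached endpoints set to highest concentration. The concentration for 50% growth inhibition is given as GI50.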 Calls of active or inactive are those of the source. Cut-off read from the data, not from the text of the source: active = GI50 up to about 1.1 µM and inactive = higher.

Legend:
Test in all cases: NCI tumour cell line growth inhibition, 48 h
HCT-15 = tested on: HCT-15
SW-620 = tested on: SW-620
SF-539 = tested on: SF-539
UO-31 = tested on: UO-31
SR = tested on: SR
SN12C = tested on: SN12C
SK-MEL-28 = tested on: SK-MEL-28
SNB-78 = tested on: SNB-78
NCI-H460 = tested on: NCI-H460
COLO 205 = tested on: COLO 205
NCI-H23 = tested on: NCI-H23
LOX IMVI = tested on: LOX IMVI
A549 = tested on: A549
HL-60 = tested on: HL-60
SK-OV-3 = tested on: SK-OV-3
HT-29 = tested on: HT-29
T47D = tested on: T47D
Hs-578T = tested on: Hs-578T
PC-3 = tested on: PC-3
MDA-MB-435 = tested on: MDA-MB-435

Measured: GI50

O=C(CSC(=S)N1CCCCC1)Nc1nc2c(s1)CCCC2
inactive: SW-620 40.7 µM | SF-539 34 µM | UO-31 33.7 µM | SR 6.4 µM | SN12C 31.3 µM | SK-MEL-28 64.7 µM | SNB-78 > 100 µM | NCI-H460 15.1 µM | COLO 205 33.3 µM | NCI-H23 36.6 µM | LOX IMVI 13.8 µM | A549 43.6 µM | HL-60 12.1 µM | SK-OV-3 > 100 µM | HT-29 36.3 µM
8.73 µM: HCT-15

C=C(C)C12CC3CC(/C(=N/O)C(C1)/C3=N\O)[C@@]2(C)O (some centres undefined)
inactive: SW-620 > 100 µM | SF-539 > 100 µM | UO-31 > 100 µM | SR > 100 µM | SN12C > 100 µM | SK-MEL-28 > 100 µM | SNB-78 > 100 µM | NCI-H460 > 100 µM | COLO 205 > 100 µM | NCI-H23 > 100 µM | LOX IMVI > 100 µM | A549 > 100 µM | HL-60 > 100 µM | SK-OV-3 > 100 µM | HT-29 > 100 µM
> 100 µM: HCT-15

C=C1C(=O)OC2CC3(C)OC3CC/C(C)=C/C(OC(C)=O)C12 (centres undefined)
5.57 µM: HCT-15
inactive: SW-620 1.72 µM | SF-539 6.37 µM | UO-31 13.6 µM | SR 3.07 µM | SN12C 11.5 µM | SK-MEL-28 5.56 µM | T47D 3.76 µM | SNB-78 9.44 µM | Hs-578T 13.2 µM | NCI-H460 15.4 µM | PC-3 13.2 µM | COLO 205 1.75 µM | NCI-H23 13.3 µM | LOX IMVI 5.22 µM | A549 17.3 µM | HL-60 1.41 µM | MDA-MB-435 12.6 µM | SK-OV-3 20 µM | HT-29 4.15 µM

O=C1COc2cc(NC(=S)Nc3ccccc3)ccc2N1
inactive: SW-620 > 100 µM | SF-539 > 100 µM | UO-31 > 100 µM | SR > 100 µM | SN12C > 100 µM | SK-MEL-28 > 100 µM | SNB-78 > 100 µM | NCI-H460 > 100 µM | COLO 205 > 100 µM | NCI-H23 > 100 µM | LOX IMVI > 100 µM | A549 > 100 µM | HL-60 > 100 µM | SK-OV-3 > 100 µM | HT-29 > 100 µM
> 100 µM: HCT-15

C=C1C(=O)OC2CCCCC3OC3C12 (centres undefined)
inactive: SW-620 4.06 µM | SF-539 11.7 µM | UO-31 15.4 µM | SR 23 µM | SN12C 7.62 µM | SK-MEL-28 10.9 µM | SNB-78 19.4 µM | NCI-H460 14.8 µM | COLO 205 3.23 µM | NCI-H23 14.4 µM | LOX IMVI 15.8 µM | A549 20.9 µM | HL-60 2.79 µM | SK-OV-3 16.5 µM | HT-29 14.4 µM
6.9 µM: HCT-15

Cc1cc(N(CCC#N)CCC#N)ccc1/C=C(\N=[N+]=[N-])C(=O)NC(=O)COc1ccccc1
> 100 µM: HCT-15
inactive: SW-620 > 100 µM | SF-539 > 67.1 µM | UO-31 > 100 µM | SR > 100 µM | SN12C > 100 µM | SK-MEL-28 > 100 µM | SNB-78 > 61.7 µM | NCI-H460 > 100 µM | COLO 205 > 100 µM | NCI-H23 > 100 µM | LOX IMVI > 100 µM | A549 > 100 µM | HL-60 > 100 µM | SK-OV-3 > 100 µM | HT-29 > 100 µM

COc1cccc(/C=N\NC(=O)C(C)SC(C)C(=O)N/N=C/c2cccc(OC)c2)c1 (centres undefined)
inactive: SW-620 57.8 µM | SF-539 > 89.1 µM | UO-31 41 µM | SR 40.5 µM | SN12C 19.6 µM | SK-MEL-28 36.6 µM | SNB-78 36 µM | NCI-H460 14.9 µM | COLO 205 24.6 µM | NCI-H23 23.8 µM | LOX IMVI > 10 µM | A549 14.6 µM | HL-60 > 62.1 µM | SK-OV-3 18.1 µM | HT-29 > 66.8 µM
> 100 µM: HCT-15

CC(C)(C)c1cc(C#N)c2c(c1)C(=O)OC2(c1ccccc1)c1ccccc1C#N (centres undefined)
inactive: SW-620 > 100 µM | SF-539 > 100 µM | UO-31 32.1 µM | SR 20.8 µM | SN12C > 100 µM | SK-MEL-28 > 100 µM | SNB-78 > 100 µM | NCI-H460 > 100 µM | COLO 205 > 100 µM | NCI-H23 > 100 µM | LOX IMVI > 100 µM | A549 > 100 µM | HL-60 7.38 µM | SK-OV-3 > 100 µM | HT-29 > 100 µM
29.5 µM: HCT-15

COc1ccc(C(c2c(O)c3ccccc3n(C)c2=O)c2c(O)c3ccccc3n(C)c2=O)cc1
> 10 µM: HCT-15
inactive: SW-620 57.4 µM | SF-539 24.5 µM | UO-31 36.5 µM | SR 51.4 µM | SN12C 66.5 µM | SK-MEL-28 39.2 µM | SNB-78 7.16 µM | NCI-H460 > 100 µM | COLO 205 57.3 µM | NCI-H23 24.5 µM | LOX IMVI 37.2 µM | A549 37.5 µM | HL-60 31.6 µM | SK-OV-3 58.3 µM | HT-29 24.3 µM

O=C(O)C1OC(n2cc(F)c(=O)[nH]c2=O)CC1O (centres undefined)
77.4 µM: HCT-15
active: NCI-H460 0.447 µM
inactive: SW-620 > 86.5 µM | SF-539 1.87 µM | UO-31 18.6 µM | SR 6.11 µM | SN12C 17.7 µM | SK-MEL-28 53.1 µM | T47D > 100 µM | SNB-78 > 26.2 µM | Hs-578T > 78.7 µM | PC-3 51.8 µM | COLO 205 61.5 µM | NCI-H23 38.7 µM | LOX IMVI 8.87 µM | A549 2.97 µM | HL-60 30.8 µM | MDA-MB-435 > 93.1 µM | SK-OV-3 > 94.8 µM | HT-29 63.8 µM

CNC(=O)OCc1cc2ccncc2c2c1[nH]c1ccccc12
> 23.8 µM: HCT-15
inactive: SW-620 6.01 µM | SF-539 > 42.6 µM | UO-31 > 100 µM | SR 2.12 µM | SN12C > 100 µM | SK-MEL-28 > 100 µM | SNB-78 > 72.6 µM | NCI-H460 > 20.7 µM | COLO 205 > 28.3 µM | NCI-H23 > 100 µM | LOX IMVI > 22.1 µM | A549 > 27.4 µM | HL-60 19.1 µM | HT-29 > 25.5 µM

CCOC(=O)c1ccc(N[C@@H]2c3cc4c(cc3C(C3=CC(=O)C(=O)C(OC)=C3)[C@H]3C(=O)OCC32)OCO4)cc1 (some centres undefined)
inactive: SW-620 2.34 µM | SF-539 1.29 µM | UO-31 2.52 µM | SN12C 2 µM | SK-MEL-28 7.6 µM | SNB-78 8.69 µM | COLO 205 3.21 µM | NCI-H23 1.54 µM | LOX IMVI 2.08 µM | SK-OV-3 2.26 µM | HT-29 4.49 µM
2.21 µM: HCT-15
active: SR 0.148 µM | NCI-H460 0.173 µM | A549 0.548 µM | HL-60 0.802 µM
